Measured values published in patent US5763477A, “Taxane derivatives from 14-β-hydroxy-10 deacetylbaccatin III” (Dr. Reddy's Research Foundation, priority 1994, dated 1998).
Read-outs that look alike come from different tables or passages of the source.

What was measured:
Assay type in all cases: cell-based
K-562 = experiment: In vitro anti-cancer activity, leukemia, cell line K-562; settings: Homo sapiens, K562
Text: (§1) In particular, these compounds are related to taxol, the recently FDA approved anticancer drug, and its various analogues having an additional hydroxyl group at C-14 position of the taxane skeleton. […] Selectivity and sensitivity were particularly good at 0.01 to 1 μm concentrations at G150 level (concentrations of the agent in the assay that produced 50 0 growth inhibition).
(§2) IN VITRO ANTI-CANCER ACTIVITY DATA OF 7,10-DIMETHYLACETONIDO 14-HYDROXY TAXOL (Compound 23) ON LEUKEMIA, OVARIAN AND BREAST CANCER CELL LINES IN COMPARISON TO TAXOL
(§3) All the values are given in μm concentrations:
(§4) The notations GI50, TGI refer to the concentrations of the agent in the assay that produced 50% growth inhibition, total growth inhibition respectively.

MDA-MB 231 = experiment: In vitro anti-cancer activity, breast cancer, cell line MDA-MB 231; settings: Homo sapiens
Text: as §1, §2, §3, §4

HL60 = experiment: In vitro anti-cancer activity, leukemia, cell line HL60; settings: Homo sapiens, HL-60
Text: as §1, §2, §3, §4

OVCAR5 = experiment: In vitro anti-cancer activity, ovarian cancer, cell line OVCAR5; settings: Homo sapiens, OVCAR-5
Text: as §1, §2, §3, §4

[1] = system: three leukemia cell lines; experiment: Activity on three leukemia cell lines (National Cancer Institute protocols)
Text: as §1

Molt-4 = experiment: In vitro anti-cancer activity, leukemia, cell line Molt-4; settings: Homo sapiens
Text: as §1, §2, §3, §4

HCT 15 = experiment: In vitro anti-cancer activity, colon cancer, cell line HCT 15; settings: Homo sapiens
OVCAR4 = experiment: In vitro anti-cancer activity, ovarian cancer, cell line OVCAR4; settings: Homo sapiens, OVCAR-4
Text: as §1, §2, §3, §4

[2] = system: leukemia, colon cancer and ovarian cancer cell lines; experiment: Selectivity and sensitivity (National Cancer Institute protocols); settings: towards leukemia
Text: as §1

MDA-MB 435 = experiment: In vitro anti-cancer activity, breast cancer, cell line MDA-MB 435; settings: Homo sapiens
Text: as §1, §2, §3, §4

IGR-OV1 = experiment: In vitro anti-cancer activity, ovarian cancer, cell line IGR-OV1; settings: Homo sapiens, IGROV-1
Text: as §1, §2, §3, §4

HT-29 = experiment: In vitro anti-cancer activity, colon cancer, cell line HT-29; settings: Homo sapiens
[3] = system: three ovarian cancer cell lines; experiment: Activity on three ovarian cancer cell lines (National Cancer Institute protocols)
Text: as §1

T47D = experiment: In vitro anti-cancer activity, breast cancer, cell line T47D; settings: Homo sapiens
Text: as §1, §2, §3, §4

RPMI-8226 = experiment: In vitro anti-cancer activity, leukemia, cell line RPMI-8226; settings: Homo sapiens
Text: as §1, §2, §3, §4

HCT 116 = experiment: In vitro anti-cancer activity, colon cancer, cell line HCT 116; settings: Homo sapiens
SW 620 = experiment: In vitro anti-cancer activity, colon cancer, cell line SW 620; settings: Homo sapiens
Text: as §1, §2, §3, §4

SR = experiment: In vitro anti-cancer activity, leukemia, cell line SR; settings: Homo sapiens
Text: as §1, §2, §3, §4

MDA-N = experiment: In vitro anti-cancer activity, breast cancer, cell line MDA-N; settings: Homo sapiens
Text: as §1, §2, §3, §4

OVCAR3 = experiment: In vitro anti-cancer activity, ovarian cancer, cell line OVCAR3; settings: Homo sapiens, OVCAR-3
Text: as §1, §2, §3, §4

MCF7 = experiment: In vitro anti-cancer activity, breast cancer, cell line MCF7; settings: Homo sapiens
Text: as §1, §2, §3, §4

BT 549 = experiment: In vitro anti-cancer activity, breast cancer, cell line BT 549; settings: Homo sapiens
Text: as §1, §2, §3, §4

H5578T = experiment: In vitro anti-cancer activity, breast cancer, cell line H5578T
Text: as §1, §2, §3, §4

KM12 = experiment: In vitro anti-cancer activity, colon cancer, cell line KM12; settings: Homo sapiens
[4] = breast cancer, read-out: TGI (total growth inhibition)
[5] = read-out: TGI (total growth inhibition)

Work on `CC(=O)O[C@@]12CO[C@@H]1C[C@@H]1OC(C)(C)O[C@H]3C(=O)[C@@]1(C)[C@@H]2[C@H](OC(=O)c1ccccc1)[C@]1(O)[C@@H](O)[C@H](OC(=O)[C@H](O)[C@@H](NC(=O)c2ccccc2)c2ccccc2)C(C)=C3C1(C)C` [Compound 23, 7,10-dimethyl acetonido-14-hydroxy taxol] yielded a GI50 (K-562; leukemia, K-562, read-out: GI50) of 247 nM, a GI50 (MDA-MB 231; breast cancer, MDA-MB 231, read-out: GI50) of 500 nM and an IC (total growth inhibition) (MDA-MB 231; breast cancer, MDA-MB 231, read-out: TGI (total growth inhibition)) greater than 30 µM. It also gave a GI50 (HL60; leukemia, HL60, read-out: GI50) of 44 nM, a GI50 (OVCAR5; ovarian cancer, OVCAR5, read-out: GI50) of 770 nM and an IC50 [1] of less than 100 nM. It also gave a GI50 (Molt-4; leukemia, Molt-4, read-out: GI50) of 267 nM, a GI50 (HCT 15; colon cancer, HCT 15, read-out: GI50) of 2140 nM and a GI50 (OVCAR4; ovarian cancer, OVCAR4, read-out: GI50) of 1860 nM. For the same molecule, the selectivity and sensitivity [2] was “good selectivity and sensitivity”, the GI50 (MDA-MB 435; breast cancer, MDA-MB 435, read-out: GI50) was 30 nM and the IC (total growth inhibition) (MDA-MB 435; breast cancer, MDA-MB 435, read-out: TGI (total growth inhibition)) was 0.12 µM. It also gave a GI50 (IGR-OV1; ovarian cancer, IGR-OV1, read-out: GI50) of 66 nM, a GI50 (HT-29; colon cancer, read-out: GI50) of 79 nM and an IC50 [3] of less than 1000 nM. The GI50 (T47D; breast cancer, read-out: GI50) was 158 nM, the IC (total growth inhibition) (T47D; [4]) was 17.7 µM and the GI50 (RPMI-8226; leukemia, read-out: GI50) was 57 nM. The GI50 (HCT 116; colon cancer, HCT 116, read-out: GI50) was 228 nM, the GI50 (SW 620; colon cancer, SW 620, read-out: GI50) was 131 nM and the GI50 (SR; leukemia, read-out: GI50) was 84 nM. It also gave a GI50 (MDA-N; breast cancer, read-out: GI50) of 33 nM, an IC (total growth inhibition) (MDA-N; [4]) of 0.12 µM and a GI50 (OVCAR3; ovarian cancer, OVCAR3, read-out: GI50) of 131 nM. The GI50 (MCF7; breast cancer, MCF7, read-out: GI50) was 70 nM, the IC (total growth inhibition) (MCF7; breast cancer, MCF7, read-out: TGI (total growth inhibition)) was greater than 30 µM and the GI50 (BT 549; breast cancer, BT 549, read-out: GI50) was 443 nM. The IC (total growth inhibition) (BT 549; breast cancer, BT 549, read-out: TGI (total growth inhibition)) was 11.2 µM, the GI50 (H5578T; breast cancer, H5578T, read-out: GI50) was 137 nM and the IC (total growth inhibition) (H5578T; breast cancer, H5578T, read-out: TGI (total growth inhibition)) was 0.89 µM. The GI50 (KM12; colon cancer, read-out: GI50) was 77 nM.

`CC(=O)O[C@H]1C(=O)[C@@]2(C)[C@H]([C@H](OC(=O)c3ccccc3)[C@]3(O)C[C@H](OC(=O)[C@H](O)[C@@H](NC(=O)c4ccccc4)c4ccccc4)C(C)=C1C3(C)C)[C@]1(OC(C)=O)CO[C@@H]1C[C@@H]2O` [Taxol, reference compound] gave a GI50 (K-562) of 15 nM, a GI50 (MDA-MB 231; MDA-MB-231) of 100 nM and an IC (total growth inhibition) (MDA-MB 231; MDA-MB-231, read-out: TGI (total growth inhibition)) of 0.67 µM. The GI50 (HL60) was 10 nM, the GI50 (OVCAR5) was 75 nM and the GI50 (Molt-4; MOLT-4) was 53 nM. For the same molecule, the GI50 (HCT 15; HCT-15) was 570 nM, the GI50 (OVCAR4) was 380 nM and the GI50 (MDA-MB 435; MDA-MB-435) was 6 nM. For the same molecule, the IC (total growth inhibition) (MDA-MB 435; MDA-MB-435, read-out: TGI (total growth inhibition)) was 0.025 µM, the GI50 (IGR-OV1) was 28 nM and the GI50 (HT-29) was 8 nM. The GI50 (T47D) was 109 nM, the TGI (total growth inhibition) (T47D; [5]) was 1000 nM and the GI50 (RPMI-8226) was 6 nM. The GI50 (HCT 116; HCT-116) was 19 nM, the GI50 (SW 620; SW-620) was 20 nM and the GI50 (SR) was 33 nM. It also gave a GI50 (MDA-N) of 4 nM, a TGI (total growth inhibition concentration) (MDA-N; [5]) of 15 nM and a GI50 (OVCAR3) of 22 nM. It also gave a GI50 (MCF7; MCF7) of 9 nM, an IC (total growth inhibition) (MCF7; MCF7, read-out: TGI (total growth inhibition)) of 1 µM and a GI50 (BT 549; BT-549) of 60 nM. The IC (total growth inhibition) (BT 549; BT-549, read-out: TGI (total growth inhibition)) was 0.7 µM, the GI50 (H5578T) was 12 nM and the TGI (total growth inhibition) (H5578T; [5]) was 150 nM. The GI50 (KM12) was 16 nM.
